Experiments:
anesthetized dogs = assay: Cardiovascular actions following intra-venous administration, opened thorax and artificial respiration; format: in vivo; settings: opened thorax, artificial respiration
Description: (§1) In particular, they have a pronounced cardiovascular action. On isolated strips of veins from dogs, they act against the K⁺-induced contraction in a lower concentration than on aorta strips. On isolated hearts from guinea pigs, they increase coronary flow as a function of the dose. On anesthetized rats, they prevent lypressin coronary spasm as a function of the dose and significiantly increase the survival rate of rats following acute cardiac infarction. On normotensive conscious dogs, they lower the systolic blood pressure for a period of 6-8 hours after oral administration. On artifically respirated anesthetized, thoraxotomized dogs, they reduce the mean arterial pressure, the left ventricular systolic pressure, the left ventricular end diastolic pressure and the pressure in the Arteria pulmonalis and reduce the peripheral vascular resistance. In contrast to the known organic nitrate esters, they also lead to a long-lasting reduction in the systolic blood pressure of spontaneously hypertensive rats. Such an action profile is not known for any of the substances of similar structure which have already been described.

conscious beagle dogs = assay: Systolic blood pressure and heart rate following peroral administration; format: in vivo; settings: 5.0 mg/kg peroral, mean ± SEM
Description: as §1

COc1ccccc1N1CCN(CC(O)CO[C@H]2CO[C@H]3[C@@H]2OC[C@@H]3O[N+](=O)[O-])CC1 (stereo partly drawn) [Example 20, 5-O-<3-[4-(2-Methoxyphenyl)-piprazinyl]-2-hydroxypropyl>-isoidide-2-nitrate]
PAP, Change (anesthetized dogs; 300 µg/kg intra-venous): 0.7 ± 0.3 mmHg | PAP, Duration of action (anesthetized dogs; 300 µg/kg intra-venous): 14 ± 13 min | SV, Action of substance (anesthetized dogs; 300 µg/kg intra-venous): 7.2 ± 2.5 mL/s | SV, Change (anesthetized dogs; 300 µg/kg intra-venous): 0.5 ± 2.9 mL/s | SV, Duration of action (anesthetized dogs; 300 µg/kg intra-venous): 33 ± 23 min | TPR (total peripheral vascular resistance), Action of substance (anesthetized dogs; 300 µg/kg intra-venous): 35 ± 6 mmHg/ml | TPR (total peripheral vascular resistance), Change (anesthetized dogs; 300 µg/kg intra-venous): 39 ± 9 mmHg/ml | TPR (total peripheral vascular resistance), Duration of action (anesthetized dogs; 300 µg/kg intra-venous): 6 ± 2 min | dp/dtmax (maximum rate of increase in the left ventricular pressure), Action of substance (anesthetized dogs; 300 µg/kg intra-venous): 2056 ± 385 mmHg/s | dp/dtmax (maximum rate of increase in the left ventricular pressure), Change (anesthetized dogs; 300 µg/kg intra-venous): 1053 ± 333 mmHg/s | dp/dtmax (maximum rate of increase in the left ventricular pressure), Duration of action (anesthetized dogs; 300 µg/kg intra-venous): 36 ± 11 min | CO, Action of substance (anesthetized dogs; 3000 µg/kg intra-venous): 2.02 ± 0.8 l/M | CO, Change (anesthetized dogs; 3000 µg/kg intra-venous): 0.87 ± 0.7 l/M | CO, Duration of action (anesthetized dogs; 3000 µg/kg intra-venous): 3 ± 0.4 min | HR (heart rate), Action of substance (anesthetized dogs; 3000 µg/kg intra-venous): 169 ± 34 Bts/M | HR (heart rate), Change (anesthetized dogs; 3000 µg/kg intra-venous): 30 ± 15 Bts/M | HR (heart rate), Duration of action (anesthetized dogs; 3000 µg/kg intra-venous): 80 ± 44 min | LVEDP (left ventricular enddiastolic pressure), Action of substance (anesthetized dogs; 3000 µg/kg intra-venous): 2.7 ± 3.8 mmHg | LVEDP (left ventricular enddiastolic pressure), Change (anesthetized dogs; 3000 µg/kg intra-venous): 2.3 ± 1.7 mmHg | LVEDP (left ventricular enddiastolic pressure), Duration of action (anesthetized dogs; 3000 µg/kg intra-venous): 104 ± 51 min | LVSP (left ventricular systolic blood pressure), Action of substance (anesthetized dogs; 3000 µg/kg intra-venous): 98 ± 21 mmHg | LVSP (left ventricular systolic blood pressure), Change (anesthetized dogs; 3000 µg/kg intra-venous): 55 ± 15 mmHg | LVSP (left ventricular systolic blood pressure), Duration of action (anesthetized dogs; 3000 µg/kg intra-venous): 128 ± 12 min | MAP (mean arterial blood pressure), Action of substance (anesthetized dogs; 3000 µg/kg intra-venous): 56 ± 2 mmHg | MAP (mean arterial blood pressure), Change (anesthetized dogs; 3000 µg/kg intra-venous): 45 ± 5 mmHg | MAP (mean arterial blood pressure), Duration of action (anesthetized dogs; 3000 µg/kg intra-venous): 118 ± 20 min | PAP, Action of substance (anesthetized dogs; 3000 µg/kg intra-venous): 14.6 ± 1 mmHg | PAP, Change (anesthetized dogs; 3000 µg/kg intra-venous): 1.1 ± 0.3 mmHg | PAP, Duration of action (anesthetized dogs; 3000 µg/kg intra-venous): > 177 min | SV, Action of substance (anesthetized dogs; 3000 µg/kg intra-venous): 10.6 ± 3.3 mL/s | SV, Change (anesthetized dogs; 3000 µg/kg intra-venous): 50 ± 0.7 mL/s | SV, Duration of action (anesthetized dogs; 3000 µg/kg intra-venous): 4 ± 0.0 min | TPR (total peripheral vascular resistance), Action of substance (anesthetized dogs; 3000 µg/kg intra-venous): 24 ± 7 mmHg/ml | TPR (total peripheral vascular resistance), Change (anesthetized dogs; 3000 µg/kg intra-venous): 56 ± 7 mmHg/ml | TPR (total peripheral vascular resistance), Duration of action (anesthetized dogs; 3000 µg/kg intra-venous): 27 ± 21 min | dp/dtmax (maximum rate of increase in the left ventricular pressure), Action of substance (anesthetized dogs; 3000 µg/kg intra-venous): 1977 ± 537 mmHg/s | dp/dtmax (maximum rate of increase in the left ventricular pressure), Change (anesthetized dogs; 3000 µg/kg intra-venous): 1395 ± 263 mmHg/s | dp/dtmax (maximum rate of increase in the left ventricular pressure), Duration of action (anesthetized dogs; 3000 µg/kg intra-venous): > 148 min | HR (heart rate), Action of substance after 1 hours (conscious beagle dogs): 98 ± 7 Bts/M | HR (heart rate), Action of substance after 2 hours (conscious beagle dogs): 109 ± 10 Bts/M | HR (heart rate), Action of substance after 4 hours (conscious beagle dogs): 82 ± 7 Bts/M | HR (heart rate), Action of substance after 6 hours (conscious beagle dogs): 78 ± 6 Bts/M | HR (heart rate), Action of substance after 8 hours (conscious beagle dogs): 77 ± 6 Bts/M | SBP (systolic blood pressure), Action of substance after 1 hours (conscious beagle dogs): 97 ± 8 mmHg | SBP (systolic blood pressure), Action of substance after 2 hours (conscious beagle dogs): 95 ± 6 mmHg | SBP (systolic blood pressure), Action of substance after 4 hours (conscious beagle dogs): 106 ± 4 mmHg | SBP (systolic blood pressure), Action of substance after 6 hours (conscious beagle dogs): 113 ± 4 mmHg | SBP (systolic blood pressure), Action of substance after 8 hours (conscious beagle dogs): 121 ± 3 mmHg

Source: EP0319030A1, “Aminopropanol derivatives of 1,4:3,6-dianhydro-hexitol nitrates, processes for their preparation and their use as medicaments” (Heinrich Mack Nachf., priority 1987, dated 1989)
